# Results reported in patent US9073914B2, “Substituted alkyl pyrimidin-4-one derivatives” (SANOFI, priority 2008, dated 2015).
# Columns and labels:
# GSK3β = GSK3β (Homo sapiens, UniProt P49841); experiment: Inhibitory activity against GSK3β (33P-ATP phosphorylation of prephosphorylated GS1 peptide, four protocols); type: biochemical
# Experimental: Test Example:Inhibitory Activity of the Medicament of the Present Invention Against GSK3β Four different protocols can be used. In a first protocol: 7.5 μM of prephosphorylated GS1 peptide and 10 μM ATP (containing 300,000 cpm of ^33P-ATP) were incubated in 25 mM Tris-HCl, pH 7.5, 0.6 mM DTT, 6 mM MgCl2, 0.6 mM EGTA, 0.05 mg/ml BSA buffer for 1 hour at room temperature in the presence of GSK3beta (total reaction volume: 100 microliters). In a second protocol: 4.1 μM of prephosphorylated GS1 peptide and 42 μM ATP (containing 260,000 cpm ^33P-ATP) were incubated in 80 mM Mes-NaOH, pH 6.5, 1 mM Mg acetate, 0.5 mM EGTA, 5 mM 2-mercaptoethanol, 0.02% Tween 20, 10% glycerol buffer for 2 hours at room temperature in the presence of GSK3beta. In a third protocol: 7.5 μM of prephosphorylated GS1 peptide and 10 μM ATP (containing 300,000 cpm of ^33P-ATP) were incubated in 50 mM Hepes, pH 7.2, 1 mM DTT, 1 mM MgCl2, 1 mM EGTA, 0.01% Tween 20 buffer for one hour at room temperature in the presence of GSK3beta (total reaction volume: 100 microliters). […] Incorporated ^33P radioactivity was determined by liquid scintillation spectrometry. […]
# Sequence of GSK3β (P49841 whole entry): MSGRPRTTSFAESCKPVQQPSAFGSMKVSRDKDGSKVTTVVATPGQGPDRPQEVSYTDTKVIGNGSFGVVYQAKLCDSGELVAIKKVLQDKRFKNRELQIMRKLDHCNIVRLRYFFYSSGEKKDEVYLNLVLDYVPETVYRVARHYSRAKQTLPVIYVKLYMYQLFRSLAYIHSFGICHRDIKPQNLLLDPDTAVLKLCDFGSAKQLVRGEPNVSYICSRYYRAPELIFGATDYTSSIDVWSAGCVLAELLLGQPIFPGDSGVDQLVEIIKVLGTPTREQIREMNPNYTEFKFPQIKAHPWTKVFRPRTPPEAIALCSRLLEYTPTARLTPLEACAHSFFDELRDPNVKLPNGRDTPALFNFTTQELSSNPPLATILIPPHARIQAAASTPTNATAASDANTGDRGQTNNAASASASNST
compound,measurement,setting,value
"(+/−)-9-Ethyl-4-oxo-2-pyrimidin-4-yl-5,6,8,9-tetrahydro-4H-1,4-a,7-triaza-benzocycloheptene-7-carboxylic acid ethyl ester [Compound No 1 of table 3]",inhibition of GSK3β,GSK3β; at 1 μM,63%
"O=c1cc(-c2ccncn2)nc2n1CCCCC2C1CC1 (racemic) [Compound No 20 of table 2, (+/−)-10-Cyclopropyl-2-pyrimidin-4-yl-7,8,9,10-tetrahydro-6H-pyrimido[1,2-α]azepin-4-one]",melting point,,130 to 132 °C
same,IC50,"GSK3β; protocol 4 (commercial GSK3beta, Millipore; 10 μM ATP; 90 minutes)",8 nM
